In patent US20060154891A1, “Ready-to-use gemcitabine solutions and gemcitabin concentrates” (priority 2004, published 2006):
Structures can show the parent of a compound that is named as a salt. Where two headings read alike, the source gives them in different places.

Assays:
[1] = Concentration at which gemcitabine hydrochloride forms a clear solution at room temperature; assay type: physicochemical
Method: At room temperature, gemcitabine hydrochloride forms a clear solution at a concentration of about 40 mg/milliliter in a strong, aqueous hydrochloric acid solution (pH approximately 3, reconstituted Gemzar® lyophilisate, Eli Lilly) or at a concentration of about 15 mg/mL in an aqueous, weakly alkaline solution having a pH of about 8, and at a concentration of up to 110 mg/mL in an alkaline, ethanolic, aqueous solution with a pH of approximately 10.

[2] = room temperature; strong, aqueous hydrochloric acid solution, pH approximately 3, reconstituted Gemzar lyophilisate; cited from earlier work
[3] = pH range from 3 to 10 investigated; EP 1 479 389 A1; cited from earlier work

SMILES	Concentration forming a clear solution ([1]; alkaline, ethanolic, aqueous solution, pH of approximately 10)	Concentration forming a clear solution ([1]; aqueous, weakly alkaline solution, pH of about 8)	Concentration forming a clear solution [2]	pH described as optimum for stability in aqueous solution [3]
Nc1ccn([C@@H]2O[C@H](CO)[C@@H](O)C2(F)F)c(=O)n1 [gemcitabine hydrochloride]	up to 110 mg/mL	about 15 mg/mL	about 40 mg/milliliter	
Nc1ccn([C@@H]2O[C@H](CO)[C@@H](O)C2(F)F)c(=O)n1 [gemcitabine, 2′-deoxy-2′,2′-difluorocytidine]				about 8
